Test results: patent US20260317324A1, “BIFUNCTIONAL COMPOUNDS FOR DEGRADING BRAF VIA UBIQUITIN PROTEOSOME PATHWAY” (Nurix Therapeutics, Inc., priority 2023, published 2026)

Target: T1, BRAF V600E (Homo sapiens, UniProt P15056, V600E)
T1 construct: endogenous C-terminal HiBiT fusion tag on BRAF V600E allele; endogenous in cells; host or cells: A375 clone 1F10 (CRISPR-Cas9 knock-in of the HiBiT tag; parental A375 from ATCC)
Experiment: BRAF HiBiT degradation assay, C-terminal HiBiT-tagged BRAF V600E A375 cells (clone 1F10), Nano-Glo HiBiT Lytic assay
Format: cell-based
Conditions: A375 (BRAF V600E); for DC50: DC50 at 50%: fitted conc. at Y=50; for Dmax: A-375, percentage protein degraded at maximal compound effect relative to DMSO
Outline: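 Degradation is measured as loss of HiBiT signal from BRAF V600E tagged at its native locus in A375 cells. Doses span 1 μM to 0.01 nM in half-log steps, in duplicate. Percent remaining is calculated against DMSO controls after subtracting untagged A375 background, and curve fitting yields DC50 and observed Dmax.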

T1 sequence (P15056 whole entry V600E, the tested form may be a part): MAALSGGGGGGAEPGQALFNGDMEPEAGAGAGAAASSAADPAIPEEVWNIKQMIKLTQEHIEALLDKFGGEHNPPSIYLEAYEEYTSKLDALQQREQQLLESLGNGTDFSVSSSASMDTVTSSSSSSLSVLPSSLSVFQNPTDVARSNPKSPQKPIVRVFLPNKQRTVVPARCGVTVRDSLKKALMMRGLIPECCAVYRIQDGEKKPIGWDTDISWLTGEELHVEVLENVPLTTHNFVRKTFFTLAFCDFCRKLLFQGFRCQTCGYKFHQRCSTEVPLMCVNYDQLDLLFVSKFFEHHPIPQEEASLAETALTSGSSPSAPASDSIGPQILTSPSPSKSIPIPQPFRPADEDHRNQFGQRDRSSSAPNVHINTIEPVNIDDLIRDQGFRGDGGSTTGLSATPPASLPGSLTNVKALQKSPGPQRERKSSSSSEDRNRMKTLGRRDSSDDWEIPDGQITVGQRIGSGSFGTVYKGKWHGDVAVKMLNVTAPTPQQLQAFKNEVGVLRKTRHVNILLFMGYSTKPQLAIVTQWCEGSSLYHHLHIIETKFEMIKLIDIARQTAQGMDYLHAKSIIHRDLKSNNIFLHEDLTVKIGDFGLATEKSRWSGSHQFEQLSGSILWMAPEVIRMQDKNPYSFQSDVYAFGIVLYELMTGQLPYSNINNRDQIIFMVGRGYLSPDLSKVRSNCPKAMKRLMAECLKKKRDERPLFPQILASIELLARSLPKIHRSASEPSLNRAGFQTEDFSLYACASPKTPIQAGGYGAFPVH

| SMILES | DC50 [nM] | Dmax [%] |
| --- | --- | --- |
| CCCS(=O)(=O)Nc1cccc(-c2nc(C3CCN(C(=O)C4CCN(C(=O)C5CCN(c6ccc([C@@H]7CCC(=O)NC7=O)cc6)CC5)CC4)CC3)sc2-c2ccncc2)c1F [Compound 200, N-[3-(2-{1-[1-(1-{4-[(3S)-2,6-dioxopiperidin-3-yl]phenyl}piperidine-4-carbonyl)piperidine-4-carbonyl]piperidin-4-yl}-5-(pyridin-4-yl)-1,3-thiazol-4-yl)-2-fluorophenyl]propane-1-sulfonamide] | 10 to 50 | > 70 |
| CCCS(=O)(=O)Nc1cccc(-c2nc(C3CCN(C(=O)C4(C)CCN(C(=O)C5CCN(c6ccc(C7CCC(=O)NC7=O)cc6)CC5)CC4)CC3)sc2-c2ccnc(N)n2)c1F (racemic) [Compound 196, Rac-N-{3-[5-(2-aminopyrimidin-4-yl)-2-{1-[1-(1-{4-[(3R)-2,6-dioxopiperidin-3-yl]phenyl}piperidine-4-carbonyl)-4-methylpiperidine-4-carbonyl]piperidin-4-yl}-1,3-thiazol-4-yl]-2-fluorophenyl}propane-1-sulfonamide] | < 10 | > 70 |
| CCCS(=O)(=O)Nc1cccc(-c2nc(C(C)(C)C)sc2-c2ccnc(Nc3ccc(C4CCN(C(=O)CCCCCc5ccc6c(c5)C(=O)N(C5CCC(=O)NC5=O)C6)CC4)cc3)n2)c1F (racemic) [Compound 151, Rac-N-(3-{2-tert-butyl-5-[2-({4-[1-(6-{2-[(3R)-2,6-dioxopiperidin-3-yl]-3-oxo-2,3-dihydro-1H-isoindol-5-yl}hexanoyl)piperidin-4-yl]phenyl}amino)pyrimidin-4-yl]-1,3-thiazol-4-yl}-2-fluorophenyl)propane-1-sulfonamide] | 10 to 50 | 30 to 70 |
| CCCS(=O)(=O)Nc1cccc(-c2nc(C(C)(C)C)sc2-c2ccnc(Nc3cccc(OC4CCN(C(=O)C5CCN(c6cccc(C7CCC(=O)NC7=O)c6)CC5)CC4)c3)n2)c1F (racemic) [Compound 99, Rac-N-[3-(2-tert-butyl-5-{2-[(3-{[1-(1-{3-[(3R)-2,6-dioxopiperidin-3-yl]phenyl}piperidine-4-carbonyl)piperidin-4-yl]oxy}phenyl)amino]pyrimidin-4-yl}-1,3-thiazol-4-yl)-2-fluorophenyl]propane-1-sulfonamide] | 10 to 50 | 30 to 70 |
| CCCS(=O)(=O)Nc1cccc(-c2nc(C(C)(C)C)sc2-c2ccnc(Nc3cnn(CC4CCN(CC5CCN(c6ccc(C(=O)N[C@@H]7CCC(=O)NC7=O)nc6)CC5)CC4)c3)n2)c1F [Compound 66, 5-(4-{[4-({4-[(4-{2-tert-butyl-4-[2-fluoro-3-(propane-1-sulfonamido)phenyl]-1,3-thiazol-5-yl}pyrimidin-2-yl)amino]-1H-pyrazol-1-yl}methyl)piperidin-1-yl]methyl}piperidin-1-yl)-N-[(3R)-2,6-dioxopiperidin-3-yl]pyridine-2-carboxamide] | < 10 | > 70 |
| CCCS(=O)(=O)Nc1cccc(-c2cn(-c3ccc(OC4CCN(C(=O)C5CCN(c6ccc(C7CCC(=O)NC7=O)cn6)CC5)CC4)cc3)nc2-c2ccncc2)c1F (racemic) [Compound 5, Rac-N-{3-[1-(4-{[1-(1-{5-[(3R)-2,6-dioxopiperidin-3-yl]pyridin-2-yl}piperidine-4-carbonyl)piperidin-4-yl]oxy}phenyl)-3-(pyridin-4-yl)-1H-pyrazol-4-yl]-2-fluorophenyl}propane-1-sulfonamide] | 50 to 500 | 30 to 70 |
| CCCS(=O)(=O)Nc1cccc(-c2nc(-c3ccc(C4CCN(C(=O)CC5CCN(c6ccc(NC7CCC(=O)NC7=O)cc6)CC5)CC4)cc3)sc2-c2ccnc(N)n2)c1F (racemic) [Compound 185, Rac-N-{3-[5-(2-aminopyrimidin-4-yl)-2-[4-(1-{2-[1-(4-{[(3R)-2,6-dioxopiperidin-3-yl]amino}phenyl)piperidin-4-yl]acetyl}piperidin-4-yl)phenyl]-1,3-thiazol-4-yl]-2-fluorophenyl}propane-1-sulfonamide] | 10 to 50 | 30 to 70 |
| CCCS(=O)(=O)Nc1cccc(-c2nc(-c3ccc(N4CCN(C(=O)CC5CCN(c6ccc(C7CCC(=O)NC7=O)cn6)CC5)CC4)cc3)sc2-c2ccnc(N)n2)c1F (racemic) [Compound 189, Rac-N-{3-[5-(2-aminopyrimidin-4-yl)-2-(4-{4-[2-(1-{5-[(3R)-2,6-dioxopiperidin-3-yl]pyridin-2-yl}piperidin-4-yl)acetyl]piperazin-1-yl}phenyl)-1,3-thiazol-4-yl]-2-fluorophenyl}propane-1-sulfonamide] | < 10 | > 70 |
| CCCS(=O)(=O)Nc1cccc(-c2nc(C(C)(C)C)sc2-c2ccnc(Nc3cnn(C4CCN(CC5CCN(c6ccc(C(=O)NC7CCC(=O)NC7=O)nc6)CC5)CC4)c3)n2)c1F (racemic) [Compound 79, Rac-5-{4-[(4-{4-[(4-{2-tert-butyl-4-[2-fluoro-3-(propane-1-sulfonamido)phenyl]-1,3-thiazol-5-yl}pyrimidin-2-yl)amino]-1H-pyrazol-1-yl}piperidin-1-yl)methyl]piperidin-1-yl}-N-[(3R)-2,6-dioxopiperidin-3-yl]pyridine-2-carboxamide] | < 10 | 30 to 70 |
| CCCS(=O)(=O)Nc1cccc(-c2nc(C(C)(C)C)sc2-c2ccnc(Nc3cnn(C4CCN(C(=O)C[C@@H]5CCN(c6ccc(C7CCC(=O)NC7=O)cc6)C5)CC4)c3)n2)c1F (mixture of isomers) [Compound 105, N-{3-[2-tert-butyl-5-(2-{[1-(1-{2-[(3S)-1-{4-[(3RS)-2,6-dioxopiperidin-3-yl]phenyl}pyrrolidin-3-yl]acetyl}piperidin-4-yl)-1H-pyrazol-4-yl]amino}pyrimidin-4-yl)-1,3-thiazol-4-yl]-2-fluorophenyl}propane-1-sulfonamide] | > 500 | 30 to 70 |

Further lines, results first:

| DC50 [nM] | Dmax [%] | SMILES |
| --- | --- | --- |
| < 10 | > 70 | CCCS(=O)(=O)Nc1cccc(-c2nc(C3CCN(C(=O)CN4CCC5(CC4)CN(c4ccc6c(c4)C(=O)N(C4CCC(=O)NC4=O)C6=O)C5)CC3)sc2-c2ccnc(N)n2)c1F (racemic) [Compound 239, Rac-N-{3-[5-(2-aminopyrimidin-4-yl)-2-{1-[2-(2-{2-[(3R)-2,6-dioxopiperidin-3-yl]-1,3-dioxo-2,3-dihydro-1H-isoindol-5-yl}-2,7-diazaspiro[3.5]nonan-7-yl)acetyl]piperidin-4-yl}-1,3-thiazol-4-yl]-2-fluorophenyl}propane-1-sulfonamide] |
| < 10 | > 70 | CCCS(=O)(=O)Nc1cccc(-c2nc(C3CCN(C(=O)C4CCN(C(=O)C5CCN(c6ccc(C7CCC(=O)NC7=O)cc6)CC5)CC4)CC3)sc2-c2ccnc(N)n2)c1F (racemic) [Compound 216, Rac-N-{3-[5-(2-aminopyrimidin-4-yl)-2-{1-[1-(1-{4-[(3R)-2,6-dioxopiperidin-3-yl]phenyl}piperidine-4-carbonyl)piperidine-4-carbonyl]piperidin-4-yl}-1,3-thiazol-4-yl]-2-fluorophenyl}propane-1-sulfonamide] |
| 10 to 50 | 30 to 70 | CCCS(=O)(=O)Nc1cccc(-c2nc(C3CCN(C4CN(C(=O)CC5(O)CCN(c6ccc(NC7CCC(=O)NC7=O)cc6F)CC5)C4)CC3)sc2-c2ccnc(N)n2)c1F (racemic) [Compound 214, Rac-N-{3-[5-(2-aminopyrimidin-4-yl)-2-[1-(1-{2-[1-(4-{[(3R)-2,6-dioxopiperidin-3-yl]amino}-2-fluorophenyl)-4-hydroxypiperidin-4-yl]acetyl}azetidin-3-yl)piperidin-4-yl]-1,3-thiazol-4-yl]-2-fluorophenyl}propane-1-sulfonamide] |
| 50 to 500 | 30 to 70 | CCCS(=O)(=O)Nc1cccc(-c2nc(C3CCN(CC4CCN(C(=O)[C@H]5CC[C@H](Oc6cccc(C7CCC(=O)NC7=O)c6)CC5)CC4)CC3)sc2-c2ccnc(N)n2)c1F (mixture of isomers) [Compound 223, N-{3-[5-(2-aminopyrimidin-4-yl)-2-[1-({1-[(1r,4r)-4-{3-[(3RS)-2,6-dioxopiperidin-3-yl]phenoxy}cyclohexanecarbonyl]piperidin-4-yl}methyl)piperidin-4-yl]-1,3-thiazol-4-yl]-2-fluorophenyl}propane-1-sulfonamide] |
| 50 to 500 | 30 to 70 | CCCS(=O)(=O)Nc1cccc(-c2nc(C3CCN(CC4CCN(C(=O)CN5CCc6cc(C7CCC(=O)NC7=O)ccc6C5)CC4)CC3)sc2-c2ccnc(N)n2)c1F (racemic) [Compound 226, Rac-N-{3-[5-(2-aminopyrimidin-4-yl)-2-(1-{[1-(2-{6-[(3R)-2,6-dioxopiperidin-3-yl]-1,2,3,4-tetrahydroisoquinolin-2-yl}acetyl)piperidin-4-yl]methyl}piperidin-4-yl)-1,3-thiazol-4-yl]-2-fluorophenyl}propane-1-sulfonamide] |
| < 10 | > 70 | CCCS(=O)(=O)Nc1cccc(-c2nc(C3CCN(CC4CCN(C(=O)CC5CCN(c6ccc(C7CCC(=O)NC7=O)cn6)CC5)CC4)CC3)sc2-c2ccnc(N)n2)c1F (racemic) [Compound 202, Rac-N-{3-[5-(2-aminopyrimidin-4-yl)-2-[1-({1-[2-(1-{5-[(3R)-2,6-dioxopiperidin-3-yl]pyridin-2-yl}piperidin-4-yl)acetyl]piperidin-4-yl}methyl)piperidin-4-yl]-1,3-thiazol-4-yl]-2-fluorophenyl}propane-1-sulfonamide] |
